Measured values reported in patent publication US20040019060A1, “Sigma receptor ligands and their medical uses” (priority 2000, published 2004).
Where a name gives a salt, the structure may show the parent alone. Read-outs that look alike come from different tables or passages of the source.

Key:
[1] = test system: human microvascular endothelial cells (HMEC-1); assay: Proliferation assay in HMEC-1 (phosphatase activity); assay type: cell-based; details: 168 h, read-out: IC50 (dose required to inhibit proliferation to 50% of control), HMEC-1, FIG. 2a, assay on day 7
Experimental: (§1) HMEC-1 (immortalised human microvascular endothelial cells) obtained from Dr Colin Porter, Chester Beatty Laboratories were grown in TCS Biologicals Microvascular Endothelial Cell Basal Medium (ZHM-2946) with supplement (ZHS-8947). This contains heparin, hydrocortisone, human EGF, human bFGF, dibutyryl cyclic AMP (concentrations not disclosed by the Company) with added 5% FCS, pH 7.4.
(§2) The cells were seeded at 2×10^4 ml in 96 well microtitre plates on day 0, and sigma ligands were added in fresh medium on day 1. […] PCS at the concentrations indicated was present throughout the assay. Each concentration of drug was assayed in triplicate, and the vehicle concentration was kept constant.
(§3) Viable cells present at the end of the assay were estimated by determining phosphatase activity as follows: 100Xl of paranitrophenylphosphate (Sigma) at 3 mg/ml in phosphate buffer pH 5.5 containing 0.1% Triton X100 was added to wells and incubated for 2hr at 37° C. The reaction was stopped with 1N NaOH. Released paranitrophenol, indicative of attached cell number, was measured by reading the absorbance at 405 nm in a Titertek multiscan. “Background” counts (which were very low) were subtracted, and the survival in drug treated wells compared with that of control wells. The 100% value is the mean absorbance of control wells treated with vehicle alone; the 0% value is that of wells containing medium only.

[2] = test system: Human adult dermal microvascular endothelial cells; assay: MTS cell viability/proliferation assay, microvascular endothelial cells; details: Homo sapiens, Endothelial cell
[3] = test system: Human mammary carcinoma (MDA MB 468) cells; assay: MTS cell viability/proliferation assay, mammary carcinoma cells; assay type: cell-based
Experimental: Human mammary carcinoma (MDA MB 468) cells were obtained from TCC, Manassas, Va., USA; catalogue number HTB-132; cells were grown in accordance with the manufacturer's instructions.
(§4) Cell density was checked microscopically at time zero.

sponge angiogenesis = assay: Mouse sponge angiogenesis model (triple radiotracer); assay type: in vivo, Balb/C mice; details: 30 mg/kg i.p. daily, all time points, FIG. 7a
From the text: In order to study neoangiogenesis in the absence of tumours, sterile polyether sponges were implanted into animals. This technique, developed in Cambridge, has been widely used to study angiogenesis. We have employed a triple radiotracer technique to study different aspects of the angiogenic process.
Balb/C mice were implanted bilaterally s.c. with sterile 7 mm diameter polyether sponges on days -5, -12 and -16 days prior to termination (5-6 mice per group). The mice were given Lugol's solution (KI) for 3 days prior to injection of radionuclides to prevent uptake of iodine in the thyroid. 24 hours before termination, the mice were injected i.v with […] [131-I] 5′-iodo-2′-deoxyuridine (IudR). One hour prior to termination the mice were injected with 2 XCi 2-deoxy-D-(1-[H3]glucose (DG) and 2 minutes prior to termination 2XCi [Tc-99m]-exametazine (HMPAO).
The IudR uptake reflects cell proliferation (primarily endothelial cells and also a small proportion of the inflammatory cells which provide the angiogenic growth factors); the DG measures cellular glucose metabolism, and the HMPAO gives a measure of blood flow. All can be taken as separate indices of the degree of vascularisation of the sponge implants. Mice were treated i.p. daily with Rimcazole (30 mg/kg) from the day of sponge implantation, or vehicle alone.

[4] = Pharmacokinetics in mice (LCMS of plasma, liver, spleen); assay type: in vivo, Balb/C mice
Experimental: Prior to undertaking any in vivo experiments with Rimcazole to study effects on tumour growth and angiogenesis, it was necessary to determine its pharmacokinetics in order that doses in the active range could be administered. Rimcazole (dissolved in water) was administered at 40 mg/kg i.p to Balb/C mice. Heparinised blood samples were taken at 5, 15 and 30 minutes, 1,2,4,6, and 24 hours and plasma separated. Tissue samples were also taken at some time points for analysis. Rimcazole samples were initially analysed by LCMS.
Column: Supelco 50×4.6 mm ABZ+ with 5 μ packing.
Mobile phase: A=HPLC grade methanol, B=0.1% formic acid in water.
Full scan mode: mass range analysed 50 to 850 amu.
MSMS mode: filtered ions were 322 (Rimcazole), 338 (Rimcazole+oxygen), and 514 (glucuronide of 338 metabolite).

[5] = test system: human vascular endothelial cells (HUVEC); assay: Proliferation assay in HUVEC (phosphatase activity); assay type: cell-based; details: 168 h, read-out: IC50 (dose required to inhibit proliferation to 50% of control), FIG. 2b, assay on day 7
Experimental: (§5) HUVECS (human umbilical vein endothelial cells) obtained from TCS Biologicals were grown in TCS Biologicals Large Vessel Endothelial Cell Basal Medium (ZHM-2951) with supplement (ZHS-8945). This contains heparin, hydrocortisone, human EGF, human bFGF (concentrations not disclosed by the Company) with added 2% FCS, pH 7.4.
as §2, §3

[6] = test system: Human mammary epithelial cells; assay: MTS cell viability/proliferation assay, mammary epithelial cells; assay type: cell-based; details: 10 micromolar, up to 48 hours, FIG. 9
From the text: (Tissue in all cases was from healthy donors). […] Primary cell types included:
Human mammary epithelial cells (catalogue number CC-2551; stain positive for cytokeratins 14, 18 and 19).
as §4

endothelial cells = assay: Endothelial cell proliferation assay (cell phosphatase activity); assay type: cell-based, human; details: Homo sapiens, Endothelial cell
Experimental: as §5, §1
as §1, with “HDMECS (human dermal” for “HMEC-1 (immortalised human”, “TCS Biologicals” for “Dr Colin Porter, Chester Beatty Laboratories”
as §2
Viable cells present at the end of the assay were estimated by determining phosphatase activity as follows: 100Xl of paranitrophenylphosphate (Sigma) at 3 mg/ml in phosphate buffer pH 5.5 containing 0.1% Triton X100 was added to wells and incubated for 2hr at 37° C. The reaction was stopped with 1N NaOH. Released paranitrophenol, indicative of attached cell number, was measured by reading the absorbance at 405 nm in a Titertek multiscan. […] The 100% value is the mean absorbance of control wells treated with vehicle alone; the 0% value is that of wells containing medium only.

For C[C@@H]1CN(CCCn2c3ccccc3c3ccccc32)C[C@H](C)N1 [Rimcazole, cis-9-[3,5-dimethyl-1-piperazinyl) propyl]carbazole dihydrochloride], the IC50 [1] was < 5 µM, the cytotoxicity at 10 µM ([2]; read-out: Reduction in viability) was ~80% and the cytotoxicity at 10 µM ([2]; read-out: Reduction in viable cell numbers compared to baseline values) was 60 to 80%. For the same compound, the “Effect of sublethal concentration (MTS)” value ([3]; 5 micromolar, FIG. 10 bottom panel) was “cytostasis”, the “Cell killing (MTS viability)” value ([3]; 10 micromolar, low passage cells, FIG. 9) was “no surviving cells remained after 24 hours” and the “Cell proliferation (IUdR), cellular metabolism (DG) and blood flow (HMPAO) in sponge implants” value (sponge angiogenesis) was “reduction”. For the same compound, the “Tissue levels relative to plasma” value ([4]; Rimcazole 40 mg/kg i.p., mice, spleen and liver) was “higher in spleen and liver than in plasma”, the “Plasma levels relative to IC50” value ([4]; once daily dosing at 40 mg/kg) was “plasma levels above the IC50 for a significant period” and the IC50 [5] was < 5 µM. For the same compound, the “Survival and proliferation (MTS)” value [6] was “continued to proliferate vigorously”, the activity at 4 µM (endothelial cells; 4 μM Rimcazole, read-out: Endothelial cell proliferation, % of control cells) was < 50% and the IC50 (endothelial cells; concentration of drug required to inhibit survival and/or proliferation by 50%, read-out: Antagonists: IC50) was 5 µM.
